Experimental data from paper PMC7265429, “Characterization of a new small-molecule inhibitor of HDAC6 in glioblastoma” (Cell Death & Disease, 2020).

System: GNS166 cells
Test: Microarray whole-transcriptome gene expression analysis
Format: cell-based, human
Settings: DMSO vs SAHA, downregulated
Procedure: Whole-transcriptome analysis was performed from 300 ng of RNA using HuGene-2_0-st-v1 expression array (Affymetrix), which covers 48,226 transcripts. Raw data were first checked for quality purposes through the Affymetrix® Expression Console™ Software v1.4.1 and TAC software v4.0. Then, data were normalized using the Robust Multi-array Average (RMA) and analyzed by Limma tool. Probesets with FDR-corrected p-values smaller than 0.05 were selected. Functional enrichment on Gene Ontology (GO) biological processes was performed on a smaller subset of the differentially expressed genes (corrected p-value < 0.001) by means of Broad Institute GSEA. […] The data that support this study have been deposited in NCBI´s Gene Expression Omnibus and are accessible through GEO series accession number GSE143887.

O=C(CCCCCCC(=O)Nc1ccccc1)NO [SAHA, Suberoylanilide hydroxamic acid]
logFC IRAK1 (transcript TC0X[…].hg.1): -1.235 | logFC B3GALT6 (transcript TC0100006494.hg.1): -0.9983 | logFC HMGN2 (transcript TC0100007463.hg.1): -1.008 | logFC CDCA8 (transcript TC0100007841.hg.1): -1.807 | logFC ERMAP (transcript TC0100008033.hg.1): -2.3938 | logFC KIF2C (transcript TC0100008101.hg.1): -1.858 | logFC CMPK1 (transcript TC0100008190.hg.1): -1.434 | logFC NEXN (transcript TC0100008807.hg.1): -1.823 | logFC HIST2H2AA3 (transcript TC0100009876.hg.1): -1.529 | logFC HIST2H3A (transcript TC0100009877.hg.1): -1.612 | logFC GABPB2 (transcript TC0100009939.hg.1): -1.449 | logFC CKS1B (transcript TC0100010100.hg.1): -1.171 | logFC PMF1 (transcript TC0100010161.hg.1): -1.537 | logFC NUF2 (transcript TC0100010397.hg.1): -2.331 | logFC FAM163A (transcript TC0100010786.hg.1): -1.762 | logFC CENPF (transcript TC0100011581.hg.1): -1.482 | logFC EPHA2 (transcript TC0100013028.hg.1): -1.043 | logFC STMN1 (transcript TC0100013369.hg.1): -1.036 | logFC HIST2H3A (transcript TC0100015701.hg.1): -1.662 | logFC ASPM (transcript TC0100016831.hg.1): -1.487 | logFC DDX59 (transcript TC0100016893.hg.1): -1.42 | logFC NUCKS1 (transcript TC0100017075.hg.1): -1.264 | logFC EIF2D (transcript TC0100017100.hg.1): -1.459 | logFC CD34 (transcript TC0100017142.hg.1): -2.059 | logFC LIN9 (transcript TC0100017523.hg.1): -1.223 | logFC ZBTB8A (transcript TC0100018209.hg.1): -1.532 | logFC HIST2H2AA4 (transcript TC0100018482.hg.1): -1.569 | logFC IAH1 (transcript TC0200006648.hg.1): -1.549 | logFC RRM2 (transcript TC0200006677.hg.1): -1.424 | logFC KCNIP3 (transcript TC0200008464.hg.1): -2.439 | logFC NCAPH (transcript TC0200008502.hg.1): -2.071 | logFC GALNT5 (transcript TC0200009739.hg.1): -2.15 | logFC CFLAR (transcript TC0200010443.hg.1): -1.832 | logFC ADI1 (transcript TC0200011551.hg.1): -2.286 | logFC EVA1A (transcript TC0200013135.hg.1): -1.744 | logFC NMI (transcript TC0200014610.hg.1): -2.309 | logFC SPC25 (transcript TC0200014845.hg.1): -1.44 | logFC SLC16A14 (transcript TC0200015971.hg.1): -1.405 | logFC HJURP (transcript TC0200016099.hg.1): -1.261 | logFC CENPA (transcript TC0200016417.hg.1): -1.421 | logFC SPDYA (transcript TC0200016423.hg.1): -1.919 | logFC ACYP2 (transcript TC0200016447.hg.1): -1.266 | logFC FANCD2 (transcript TC0300006575.hg.1): -1.767 | logFC KIF15 (transcript TC0300007223.hg.1): -1.9928 | logFC ARHGAP31 (transcript TC0300008467.hg.1): -1.69 | logFC FAIM (transcript TC0300008952.hg.1): -1.871 | logFC RTP4 (transcript TC0300009799.hg.1): -1.468 | logFC SUCLG2 (transcript TC0300011436.hg.1): -1.146 | logFC BDH1 (transcript TC0300013751.hg.1): -1.665 | logFC NAALADL2 (transcript TC0300013904.hg.1): -1.839 | logFC KCNMB2 (transcript TC0300013906.hg.1): -1.816 | logFC NEIL3 (transcript TC0400009396.hg.1): -0.9384 | logFC CCNA2 (transcript TC0400011748.hg.1): -1.45 | logFC GPM6A (transcript TC0400012473.hg.1): -1.528 | logFC TRIP13 (transcript TC0500006472.hg.1): -1.825 | logFC NDUFS6 (transcript TC0500006523.hg.1): -0.9474 | logFC IL7R (transcript TC0500007138.hg.1): -2.627 | logFC NNT (transcript TC0500007303.hg.1): -1.728 | logFC CCNB1 (transcript TC0500007665.hg.1): -1.603 | logFC KIF20A (transcript TC0500008777.hg.1): -2.05 | logFC HIGD2A (transcript TC0500009587.hg.1): -1.228 | logFC NSD1 (transcript TC0500009610.hg.1): -1.443 | logFC ARSB (transcript TC0500011228.hg.1): -1.571 | logFC BRD8 (transcript TC0500012162.hg.1): -1.077 | logFC CRHBP (transcript TC0500013193.hg.1): -2.74 | logFC PCBD2 (transcript TC0500013230.hg.1): -1.097 | logFC FAM169A (transcript TC0500013328.hg.1): -1.569 | logFC HIST1H4C (transcript TC0600007268.hg.1): -1.755 | logFC HIST1H2BF (transcript TC0600007282.hg.1): -1.711 | logFC HIST1H4E (transcript TC0600007284.hg.1): -2.005 | logFC HIST1H2AE (transcript TC0600007285.hg.1): -1.564 | logFC HIST1H2AL (transcript TC0600007380.hg.1): -1.235 | logFC GTF3C6 (transcript TC0600009140.hg.1): -2.124 | logFC HIST1H4B (transcript TC0600011123.hg.1): -1.235 | logFC HIST1H3B (transcript TC0600011124.hg.1): -1.868 | logFC HIST1H3D (transcript TC0600011135.hg.1): -1.444 | logFC HIST1H2BG (transcript TC0600011136.hg.1): -1.568 | logFC HIST1H4H (transcript TC0600011145.hg.1): -1.26 | logFC HIST1H2BJ (transcript TC0600011184.hg.1): -1.604 | logFC HIST1H2BK (transcript TC0600011185.hg.1): -1.804 | logFC PSMB8 (transcript TC0600011507.hg.1): -1.143 | logFC DNPH1 (transcript TC0600011870.hg.1): -1.264 | logFC FBXO5 (transcript TC0600013602.hg.1): -1.287 | logFC HIST1H2AG (transcript TC0600014083.hg.1): -2.001 | logFC NUDT3 (transcript TC0600014283.hg.1): -1.135 | logFC LANCL2 (transcript TC0700007610.hg.1): -1.812 | logFC GTF2I (transcript TC0700008010.hg.1): -1.635 | logFC MEPCE (transcript TC0700008542.hg.1): -1.622 | logFC CAV1 (transcript TC0700008873.hg.1): -0.9681
